Test results as given in patent publication US20250197864A1, “LNCRNA TRANSCRIPTS IN MELANOMAGENESIS” (The Regents of the University of California, priority 2021, published 2025).

How the values were obtained:
[1] = test system: MM415 melanoma cell line; test: Cell viability assay (ATP quantitation); assay type: cell-based, human; conditions: 50 nM, 5 days (120 hrs), vs non-targeting control
Description: (§1) EsiRNA, siRNA and ASO GapmeRs were transfected in a final concentration of 50 nM unless mentioned otherwise and the transfection reagent Lipofectamine 3000 (2 ul/ml) was added according to the manufacturer's instructions.
(§2) Dependent on cell doubling time, 0.7-2×10^^3 cells were seeded in 96 well plates. 1 day after seeding cells were incubated in media with oligonucleotide concentration and/or MEKi and transfection reagent. 3 (synergy experiments) or 5 (solely ASO) days after transfection Total luminescence was measured on the SynergyHT plate reader (BioTek) using Gen5 software.

[2] = test system: D04 melanoma cell line; test: Cell viability assay (ATP quantitation); assay type: cell-based, human; conditions: 50 nM, 5 days (120 hrs), vs non-targeting control
Description: as §1, §2

[3] = test system: melanoma cell lines; test: Cell viability assay (ATP quantitation), melanoma panel; assay type: cell-based, human; conditions: 50 nM oligonucleotide, 72 hours, vs non-targeting pooled siRNA
Description: Human melanoma cell line VMM39 was purchased from American Type Culture Collection (ATCC). Human melanoma cell lines D04, MM415, WM1366, WM3629, WM3211, Sk-Mel-2 and Sk-Mel-28 were a generous gift from Boris Bastian at the University of California, San Francisco. Primary human melanoma cell line Hs852.T was purchased from the Cell Culture Core Facility (CCCF) at the University of California, San Francisco. Primary human melanoma cell line AV5 was obtained from metastasis of a melanoma patient. All experimental protocols were approved by UCSF Human Research Protection Program Institutional Review Board (IRB #12-0948), all patients signed informed consent, and methods were carried out in accordance with relevant guidelines and regulations. Resistant cell lines DO4RM, MM415RM, Sk-Mel-2RM and WM3629RM were established as previously described. [Sanlorenzo, M. et al., The lincRNA MIRAT binds to IQGAPI and modulates the MAPK pathway in NRAS mutant melanoma. Sci Rep 8, 10902 (2018).] Primary human melanocytic cell lines (PHM) from infant foreskin of five healthy donors were available in our cell repository and pooled. […]
Dependent on cell doubling time, 0.7-2×10^^3 cells were seeded in 96 well plates. […] 3 (synergy experiments) or 5 (solely ASO) days after transfection Total luminescence was measured on the SynergyHT plate reader (BioTek) using Gen5 software.

[4] = test system: Sk-Mel-28 melanoma cell line; test: Cell viability assay (ATP quantitation); assay type: cell-based, human; conditions: 50 nM, 5 days (120 hrs), vs non-targeting control
Description: as §1, §2

[5] = test system: Hs852.T primary melanoma cell line; test: Cell viability assay (ATP quantitation); assay type: cell-based, human; conditions: 50 nM, 5 days (120 hrs), vs non-targeting control
Description: as §1, §2

[6] = test system: WM1366 melanoma cell line; test: Cell viability assay (ATP quantitation); assay type: cell-based, human; conditions: 50 nM, 5 days (120 hrs), vs non-targeting control
Description: as §1, §2

[7] = test system: WM3629 melanoma cell line; test: Cell viability assay (ATP quantitation); assay type: cell-based, human; conditions: 50 nM, 5 days (120 hrs), vs non-targeting control
Description: as §1, §2

[8] = test system: VMM39 melanoma cell line; test: Cell viability assay (ATP quantitation); assay type: cell-based, human; conditions: 50 nM, 5 days (120 hrs), vs non-targeting control
Description: as §1, §2

[9] = test system: WM3211 melanoma cell line; test: Cell viability assay (ATP quantitation); assay type: cell-based, human; conditions: 50 nM, 5 days (120 hrs), vs non-targeting control
Description: as §1, §2

[10] = test system: AV5 primary melanoma cell line; test: Cell viability assay (ATP quantitation); assay type: cell-based, human; conditions: 50 nM, 5 days (120 hrs), vs non-targeting control
Description: as §1, §2

[11] = test system: Sk-Mel-2 melanoma cell line; test: Cell viability assay (ATP quantitation); assay type: cell-based, human; conditions: 50 nM, 5 days (120 hrs), vs non-targeting control
Description: as §1, §2

[12] = test system: U20S osteosarcoma cell line; test: Cell viability assay (ATP quantitation); assay type: cell-based; conditions: 50 nM, 5 days, vs non-targeting control
Description: as §1, §2

[13] = test system: Sk-Mel-5 melanoma cell line; test: Cell viability assay (ATP quantitation); assay type: cell-based; conditions: 50 nM, 5 days, vs non-targeting control
Description: as §1, §2

[14] = test system: Sk-N-AS Neuroblastoma cell line; test: Cell viability assay (ATP quantitation); assay type: cell-based; conditions: 50 nM, 5 days, vs non-targeting control
Description: as §1, §2

[15] = test system: T98G Glioblastoma cell line; test: Cell viability assay (ATP quantitation); assay type: cell-based; conditions: 50 nM, 5 days, vs non-targeting control
Description: as §1, §2

[16] = test system: MaMel30 melanoma cell line; test: Cell viability assay (ATP quantitation); assay type: cell-based; conditions: 50 nM, 5 days, vs non-targeting control
Description: as §1, §2

[17] = test system: AV1 melanoma cell line; test: Cell viability assay (ATP quantitation); assay type: cell-based; conditions: 50 nM, 5 days, vs non-targeting control
Description: as §1, §2

[18] = test system: H82 lung cancer cell line; test: Cell viability assay (ATP quantitation); assay type: cell-based; conditions: 50 nM, 5 days, vs non-targeting control
Description: as §1, §2

[19] = test system: SW480 colon carcinoma cell line; test: Cell viability assay (ATP quantitation); assay type: cell-based; conditions: 50 nM, 5 days, vs non-targeting control
Description: as §1, §2

[20] = test system: AV4 melanoma cell line; test: Cell viability assay (ATP quantitation); assay type: cell-based; conditions: 50 nM, 5 days, vs non-targeting control
Description: as §1, §2

[21] = test system: L363 multiple myeloma cell line; test: Cell viability assay (ATP quantitation); assay type: cell-based; conditions: 50 nM, 5 days, vs non-targeting control
Description: as §1, §2

[22] = test system: HCT116 colon carcinoma cell line; test: Cell viability assay (ATP quantitation); assay type: cell-based; conditions: 50 nM, 5 days, vs non-targeting control
Description: as §1, §2

[23] = test system: U87-MG Glioblastoma cell line; test: Cell viability assay (ATP quantitation); assay type: cell-based; conditions: 50 nM, 5 days, vs non-targeting control
Description: as §1, §2

[24] = test system: H929 multiple myeloma cell line; test: Cell viability assay (ATP quantitation); assay type: cell-based; conditions: 50 nM, 5 days, vs non-targeting control
Description: as §1, §2

[25] = test system: SW1271 lung cancer cell line; test: Cell viability assay (ATP quantitation); assay type: cell-based; conditions: 50 nM, 5 days, vs non-targeting control
Description: as §1, §2

[26] = test system: H2228 lung cancer cell line; test: Cell viability assay (ATP quantitation); assay type: cell-based; conditions: 50 nM, 5 days, vs non-targeting control
Description: as §1, §2

[27] = test system: U138-MG Glioblastoma cell line; test: Cell viability assay (ATP quantitation); assay type: cell-based; conditions: 50 nM, 5 days, vs non-targeting control
Description: as §1, §2

[28] = test system: A-172 Glioblastoma cell line; test: Cell viability assay (ATP quantitation); assay type: cell-based; conditions: 50 nM, 5 days, vs non-targeting control
Description: as §1, §2

[29] = test system: WM3060 melanoma cell line; test: Cell viability assay (ATP quantitation); assay type: cell-based; conditions: 50 nM, 5 days, vs non-targeting control
Description: as §1, §2

[30] = test system: XG-1 multiple myeloma cell line; test: Cell viability assay (ATP quantitation); assay type: cell-based; conditions: 50 nM, 5 days, vs non-targeting control
Description: as §1, §2

[31] = test system: MM415RM trametinib resistant melanoma cell line; test: Cell viability assay (ATP quantitation); assay type: cell-based; conditions: 50 nM, 5 days, vs non-targeting control
Description: (§3) Human melanoma cell line VMM39 was purchased from American Type Culture Collection (ATCC). Human melanoma cell lines D04, MM415, WM1366, WM3629, WM3211, Sk-Mel-2 and Sk-Mel-28 were a generous gift from Boris Bastian at the University of California, San Francisco. Primary human melanoma cell line Hs852.T was purchased from the Cell Culture Core Facility (CCCF) at the University of California, San Francisco. Primary human melanoma cell line AV5 was obtained from metastasis of a melanoma patient. All experimental protocols were approved by UCSF Human Research Protection Program Institutional Review Board (IRB #12-0948), all patients signed informed consent, and methods were carried out in accordance with relevant guidelines and regulations. Resistant cell lines DO4RM, MM415RM, Sk-Mel-2RM and WM3629RM were established as previously described. [Sanlorenzo, M. et al., The lincRNA MIRAT binds to IQGAPI and modulates the MAPK pathway in NRAS mutant melanoma. Sci Rep 8, 10902 (2018).] Primary human melanocytic cell lines (PHM) from infant foreskin of five healthy donors were available in our cell repository and pooled. Melanoma cell lines were maintained in RPMI 1640 media supplemented with 10% (vol/vol) heat inactivated fetal bovine serum. Melanocytes were maintained in M254 medium with HMGS supplements (1× final solution). All cell lines were incubated at 37° C. under 5% CO2.
as §1, §2

[32] = test system: D04RM trametinib resistant melanoma cell line; test: Cell viability assay (ATP quantitation); assay type: cell-based; conditions: 50 nM, 5 days, vs non-targeting control
Description: as §3, §1, §2

[33] = test system: Sk-Mel-2-RM trametinib resistant melanoma cell line; test: Cell viability assay (ATP quantitation); assay type: cell-based; conditions: 50 nM, 5 days, vs non-targeting control
Description: as §3, §1, §2

[34] = test system: WM3629RM trametinib resistant melanoma cell line; test: Cell viability assay (ATP quantitation); assay type: cell-based; conditions: 50 nM, 5 days, vs non-targeting control
Description: as §3, §1, §2

[35] = test system: Hs940.T melanoma cell line; test: Cell viability assay (ATP quantitation); assay type: cell-based; conditions: 50 nM, 5 days, vs non-targeting control
Description: as §1, §2

[36] = test system: H1299 lung cancer cell line; test: Cell viability assay (ATP quantitation); assay type: cell-based; conditions: 50 nM, 5 days, vs non-targeting control
Description: as §1, §2

[37] = test system: MM485 melanoma cell line; test: Cell viability assay (ATP quantitation); assay type: cell-based; conditions: 50 nM, 5 days, vs non-targeting control
Description: as §1, §2

[38] = test system: A375 melanoma cell line; test: Cell viability assay (ATP quantitation); assay type: cell-based; conditions: 50 nM, 5 days, vs non-targeting control
Description: as §1, §2

5′-ACAAAGAGAGACAGGAAAUUU-3′ (chain 2 AUUUCCUGUCUCUCUUUGUUU; listed as RNA, chemistry not given here) [SEQ ID NO:45]
significant cell viability decrease: cell viability decrease [1] | cell viability decrease [2] | cell viability decrease (RNAi screening) [3]

ACATGGATTGGTAGTG (QIAGEN GapmeR, modification pattern not given here) [SEQ ID NO: 17, Antisense oligonucleotide targeting RP11-7011.3-001, 002 and 003]
significant cell viability decrease: cell viability decrease [4] | cell viability decrease [1] | cell viability decrease [5] | cell viability decrease [6] | cell viability decrease [7] | cell viability decrease [8] | cell viability decrease [2] | cell viability decrease [9] | cell viability decrease [10] | cell viability decrease [11] | cell viability decrease [12] | cell viability decrease [13] | cell viability decrease [14] | cell viability decrease [15] | cell viability decrease [16] | cell viability decrease [17] | cell viability decrease [18] | cell viability decrease [19] | cell viability decrease [20] | cell viability decrease [21] | cell viability decrease [22] | cell viability decrease [23] | cell viability decrease [24] | cell viability decrease [25] | cell viability decrease [26] | cell viability decrease [27] | cell viability decrease [28] | cell viability decrease [29] | cell viability decrease [30] | cell viability decrease [31] | cell viability decrease [32] | cell viability decrease [33] | cell viability decrease [34]

AAGGAGGGTAAACGCT (chemistry not given here) [SEQ ID NO: 13, Antisense oligonucleotide targeting BX470102.3-008]
significant cell viability decrease: cell viability decrease [4] | cell viability decrease [1] | cell viability decrease [5] | cell viability decrease [6] | cell viability decrease [7] | cell viability decrease [8] | cell viability decrease [2] | cell viability decrease [9] | cell viability decrease [10] | cell viability decrease [11] | cell viability decrease [12] | cell viability decrease [13] | cell viability decrease [14] | cell viability decrease [15] | cell viability decrease [35] | cell viability decrease [18] | cell viability decrease [19] | cell viability decrease [20] | cell viability decrease [22] | cell viability decrease [36] | cell viability decrease [23] | cell viability decrease [24] | cell viability decrease [25] | cell viability decrease [26] | cell viability decrease [37] | cell viability decrease [27] | cell viability decrease [28] | cell viability decrease [38] | cell viability decrease [29] | cell viability decrease [31] | cell viability decrease [32] | cell viability decrease [33] | cell viability decrease [34]
